The record followed here is ChEMBL document CHEMBL5113463, “Discovery and preclinical evaluations of JBD0131, a novel nitrodihydro-imidazooxazole anti-tuberculosis agent” (Bioorg Med Chem Lett, 2022).

As a reminder, the MIC50 is an inhibitory concentration at the 50% level, which refers to growth in some studies and to a panel of isolates in others. Broadly, the MIC90 is an inhibitory concentration at the 90% level, which refers to growth in some studies and to a panel of isolates in others.

This experiment has as its system Mycobacterium tuberculosis. Kind of experiment: Antimycobacterial activity against clinical isolate multidrug resistant Mycobacterium tuberculosis H37Rv assessed as bacterial growth inhibition. The format is functional.

Converted amounts (≈) assume the structure as drawn.

For `NNC(=O)c1ccncc1` [ISONIAZID], the MIC50 was 4.37 µg/mL (≈ 31.9 µM) and the MIC90 was more than 40 µg/mL.
With `NC[C@H]1O[C@H](O[C@H]2[C@H](O)[C@@H](O[C@H]3O[C@H](CO)[C@@H](O)[C@H](N)[C@H]3O)[C@H](N)C[C@@H]2N)[C@H](O)[C@@H](O)[C@@H]1O` [KANAMYCIN], the MIC50 came out at 1.24 µg/mL (≈ 2.55 µM) and the MIC90 was more than 40 µg/mL.
Regarding `C[C@]1(CN2Cc3nc(-c4ccc(F)cc4)sc3C2)CN=C(N)O1`, the MIC50 was found to be 0.011 µg/mL (≈ 0.0331 µM) and the MIC90 amounted to 0.035 µg/mL (≈ 0.105 µM).
Turning to `CO[C@H]1/C=C/O[C@@]2(C)Oc3c(C)c(O)c4c(O)c(c(/C=N/N5CCN(C)CC5)c(O)c4c3C2=O)NC(=O)/C(C)=C\C=C\[C@H](C)[C@H](O)[C@@H](C)[C@@H](O)[C@@H](C)[C@H](OC(C)=O)[C@@H]1C` [RIFAMPIN], the MIC50 is more than 40 µg/mL and the MIC90 was more than 40 µg/mL.
Turning to `C[C@]1(COc2ccc(N3CCC(Oc4ccc(OC(F)(F)F)cc4)CC3)cc2)Cn2cc([N+](=O)[O-])nc2O1`, the MIC50 was 0.002 µg/mL (≈ 0.00374 µM) and the MIC90 is 0.003 µg/mL (≈ 0.00561 µM).
